Consider 7 compounds from ChEMBL document CHEMBL1126813, “Phenyl-substituted prostaglandins: potent and selective antiglaucoma agents” (J Med Chem, 1993).

Molecules are shown by their SMILES.

The subject of one assay is Monkey. Description: Maximum reduction of the intraocular pressure in normotensive monkeys after topical administration of 3 ug of the compound. In kind it is functional, Cercopithecidae, Eye.
Assay [1] deals with Felis catus. The assay is described as follows: Maximum irritation of cat eyes after topical administration of 5 ug of the compound. Type of assay: functional.
Assay [2] deals with Felis catus. The assay is described as follows: Maximum irritation of cat eyes after topical administration of 3 ug of the compound. Type of assay: functional.
Assay [3] is filed under the species Felis catus. Description: Compound concentration which had a contractile effect on iris sphincter muscle of cats. Type of assay: functional.

In general, EC50 refers to the concentration giving half of the maximal effect.

Consider `CC(C)OC(=O)CCC/C=C\C[C@@H]1[C@@H](/C=C/[C@@H](O)CCc2ccccc2)[C@H](O)C[C@@H]1O`, for which, in the assay on Monkey, the “Reduction of IOP” value stood at 2.9 mmHg. This compound also returned an Irritation of eyes in the assay on Felis catus [1] of 0.2 arbitrary units.

`CC(C)OC(=O)CCC/C=C\C[C@@H]1[C@@H](/C=C/[C@H](O)CCc2ccccc2)[C@H](O)C[C@@H]1O`: in the assay on Monkey, the “Reduction of IOP” value was determined as 1.9 mmHg. The compound also gave an Irritation of eyes in the assay with Felis catus [1] of 0 arbitrary units. Take `CCCCC[C@H](O)CC[C@@H]1[C@@H](C/C=C\CCCC(=O)OC(C)C)[C@@H](O)C[C@H]1O`: the “Reduction of IOP” value in the assay with Monkey is on record as 2.5 mmHg. In the assay with Felis catus [2], this compound yielded an Irritation of eyes of 2.5 arbitrary units. For `CCCCC[C@@H](O)CC[C@@H]1[C@@H](C/C=C\CCCC(=O)OC(C)C)[C@@H](O)C[C@H]1O`, in the assay on Monkey, the “Reduction of IOP” value was 0.7 mmHg. In the assay on Felis catus [2], the Irritation of eyes is listed as 2.3 arbitrary units. For `CC(C)OC(=O)CCC/C=C\C[C@@H]1[C@@H](CC[C@H](O)CCc2ccccc2)[C@H](O)C[C@@H]1O` the same measures were 1 mmHg and 0 arbitrary units. With `O=C(O)CCC/C=C\C[C@@H]1[C@@H](CC[C@@H](O)CCc2ccccc2)[C@H](O)C[C@@H]1O` [LATANOPROST ACID], the midpoint of the response in the assay filed under Felis catus [3], the EC50, lay at 0.71 nM.

`CC(C)OC(=O)CCC/C=C\C[C@@H]1[C@@H](CC[C@@H](O)CCc2ccccc2)[C@H](O)C[C@@H]1O` [LATANOPROST]: the “Reduction of IOP” value in the assay on Monkey is listed as 2.6 mmHg. In the assay with Felis catus [2], the Irritation of eyes is 0 arbitrary units.
